Test results reported in publication PMC10831786 (Virus Research, 2024).
Counter-ions that a name gives are not always drawn.

How the values were obtained:
Entamoeba histolytica [1] = settings: in vitro; ref Burchard and Mirelman, 1988; cited from earlier work
[2] = MTS assay, growth inhibition and toxicity in non-infected BEC-hACE2 cells; type: cell-based, human; settings: human, sub-confluent non-infected BEC-hACE2 cells; sub-confluent BEC-hACE2, 24 h; read-out: MTS, CC50 (50 % effect)
Experimental: Detailed methods are provided in Supplementary Information.
Vero E6 and BEC-hACE2 cells were grown to 70-80% density in their maintenance media and exposed to various concentrations of ipecac alkaloids (0.0125 – 200 µM) under standard culture conditions for 48-72 h and 24 h, respectively. Controls with varying amounts of DMSO and no DMSO were included also. Vero E6 cells were incubated with drugs in 2% FBS-EMEM, while BEC-HACE2 cells were grown and treated in complete PCS-300-03 medium with supplements. Similar treatments were also conducted using fully confluent non-growing BEC-hACE2 cells. At the end of the exposure period, MTS reagent (Promega G3580) was added at 1/5th of the medium volume and color was allowed to develop by incubation of the plates for an hour in a cell culture incubator. To stop reactions, SDS was added to a final concentration of 2% and optical density of samples was measured at 450 or 490 nm, depending on the model of spectrophotometer (PharmaciaBiotech, NJ, USA; UV spectrophotometer, model Ultrospec2000) or plate reader (Molecular Devices, CA, USA; model Filter Max F5 Multi-mode microplate reader) available at the time of experiment.

Entamoeba histolytica [3] = experiment: Growth inhibition of Entamoeba histolytica in vitro (literature); type: cell-based; settings: anti-coronavirus IC50 versus amebae

## CC[C@H]1CN2CCc3cc(OC)c(OC)cc3[C@@H]2C[C@@H]1C[C@H]1NCCc2cc(OC)c(OC)cc21 [Emetine, 2H-Benzoaquinolizine, 3-ethyl-1,3,4,6,7,11b-hexahydro-9,10-dimethoxy-2-(1R)-1,2,3,4-tetrahydro-6,7-dimethoxy-1-isoquinolinylmethyl-, dihydrochloride, (2S,3R,11bS)-, reference compound]
Entamoeba histolytica [1]
  Concentration required to inhibit growth of Entamoeba histolytica: 12 to 25 µM
[2]
  CC50 at 24 h: 100 µM

## CCC1=C(C[C@H]2NCCc3cc(OC)c(OC)cc32)C[C@H]2c3cc(OC)c(OC)cc3CCN2C1 [DHE4, 4H-Benzo[a]quinolizine, 3-ethyl-1,6,7,11b-tetrahydro-9,10-dimethoxy-2-[[(1R)-1,2,3,4-tetrahydro-6,7-dimethoxy-1-isoquinolinyl]methyl]-, (11bS)-]
Entamoeba histolytica [3]
  Fold, antiviral concentrations lower than those required to kill amebae: 125–250 fold
